From US6461997B1, “Triazole sulfones having herbicidal activity” (Monsanto Technology LLC, priority 1999, dated 2002)

Legend:
ABUTH (velvetleaf) = assay: Pre-plant incorporated (PPI) herbicidal activity, warm season; type: in vivo, Abutilon theophrasti; conditions: PPI application
Outline: (§1)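 Compound-laden cover soil (organic solvent spray, mixed in) over seeds; 0.64 cm overhead water initially. Evaluated ~14 days: % inhibition relative to untreated.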

[1] = system: AGSST (creeping bentgrass); assay: Pre-emergence herbicidal activity, cool season; type: in vivo, Agrostis stolonifera; conditions: GR80 = lowest tested rate (300, 100, 30, 10 g/ha) with 80% or greater inhibition; approx. 14 days after treating; 18/13° C.
Outline: (§2)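 Seeds sown in sterilised fertilised topsoil received surface-applied compound in 50:50 acetone/water, typically at 300, 100, 30 and 10 g/ha, then greenhouse-grown at 30/21° C (warm-season species) or 18/13° C (cool-season species). Percent inhibition versus untreated plants was scored at about 14 days, giving GR80; an asterisk marks activity short of 80% at the top rate.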

AMARE (redroot pigweed) = assay: Pre-emergence herbicidal activity, warm season; type: in vivo, Amaranthus retroflexus; conditions: GR80 = lowest tested rate (300, 100, 30, 10 g/ha) with 80% or greater inhibition; approx. 14 days after treating; 30/21° C.
Outline: as §2

DATST (jimsonweed) = assay: Pre-emergence herbicidal activity, warm season; type: in vivo, Datura stramonium; conditions: GR80 = lowest tested rate (300, 100, 30, 10 g/ha) with 80% or greater inhibition; approx. 14 days after treating; 30/21° C.
Outline: as §2

[2] = system: LAMPU (purple deadnettle); assay: Pre-plant incorporated (PPI) herbicidal activity, cool season; type: in vivo, Lamium purpureum; conditions: weed, PPI application
Outline: as §1

SETVI (green foxtail) = assay: as above; type: in vivo, Setaria viridis; conditions: weed, PPI application
Outline: as §1

LOLMG (annual ryegrass) = assay: Pre-emergence herbicidal activity, cool season; type: in vivo, Lolium multiflorum; conditions: GR80 = lowest tested rate (300, 100, 30, 10 g/ha) with 80% or greater inhibition; approx. 14 days after treating; 18/13° C.
Outline: as §2

KCHSC (kochia) = assay: Pre-emergence herbicidal activity, cool season; type: in vivo, Kochia scoparia; conditions: lowest tested rate with 80% or greater inhibition; rates 300, 100, 30, 10 g/ha; about 14 days
Experimental: Tables 5 to 8 summarize results of tests conducted as described below to determine the pre-emergence herbicidal activity, in the form of a GR80 value, of illustrative compounds of this invention. […] Compounds of the invention were typically applied at rates of 300, 100, 30, and 10 g/ha. Where herbicidal activity was evident but 80% inhibition was not achieved at the highest rate tested, an asterisk (*) is shown in the following tables.
The pre-emergence tests were conducted by the following procedure. Topsoil was sieved to pass through a 1.27 cm screen. Fertilizer was added to the topsoil and the mixture was then sterilized by heating. The topsoil mixture was placed in a pot and compacted to a depth of 1.0 to 1.25 cm from the top of the pot. Seeds of each of several monocotyledonous and dicotyledonous annual plant species were placed on top of the soil. Additional soil was subsequently placed over the seeds to level-fill the pot. A known amount of each test compound dissolved or suspended in an appropriate organic solvent was diluted with a 50:50 mix of acetone and water and applied to the surface of the soil. After treatment the plants were placed in a greenhouse where they received 0.64 cm of overhead irrigation. All subsequent watering consisted of a light overhead mist and/or subirrigation as needed for germination and growth. Tables 5 and 6 below relate to warm season plant species which were placed after pre-emergence treatment in a greenhouse with a 30/21° C. day/night temperature regime. Tables 7 and 8 below relates to cool season plant species placed after pre-emergence treatment in a greenhouse or growth chamber with an 18/13° C. day/night temperature regime.
Approximately 14 days after planting and treating, the plants were observed and herbicidal efficacy recorded as percent inhibition by comparison with untreated plants.
The plant species usually regarded as weeds which were utilized in the tests are identified in the tables below according to the following legend, in which “d” indicates a dicotyledonous species and “m” a monocotyledonous species. All monocotyledonous species included in the tests herein are grasses.

[3] = system: GALAP (catchweed bedstraw); assay: Pre-plant incorporated (PPI) herbicidal activity, cool season; type: in vivo, Galium aparine; conditions: weed, PPI application
Outline: as §1

Compound	Percent inhibition ABUTH (ABUTH (velvetleaf); 30 g/ha) [%]	Percent inhibition ABUTH (ABUTH (velvetleaf); 100 g/ha) [%]	Percent inhibition ABUTH (ABUTH (velvetleaf); 300 g/ha) [%]	Percent inhibition ABUTH (ABUTH (velvetleaf); 900 g/ha) [%]	Pre-emergence activity (GR80) AGSST [1] [g/ha]	Pre-emergence activity (GR80) AMARE (AMARE (redroot pigweed)) [g/ha]	Pre-emergence activity (GR80) DATST (DATST (jimsonweed)) [g/ha]	Percent inhibition LAMPU ([2]; 30 g/ha) [%]	Percent inhibition LAMPU ([2]; 100 g/ha) [%]	Percent inhibition LAMPU ([2]; 300 g/ha) [%]	Percent inhibition LAMPU ([2]; 900 g/ha) [%]	Percent inhibition SETVI (SETVI (green foxtail); 30 g/ha) [%]	Percent inhibition SETVI (SETVI (green foxtail); 100 g/ha) [%]	Percent inhibition SETVI (SETVI (green foxtail); 300 g/ha) [%]	Percent inhibition SETVI (SETVI (green foxtail); 900 g/ha) [%]	Pre-emergence activity GR80, KCHSC (KCHSC (kochia)) [g/ha]	Percent inhibition GALAP ([3]; 30 g/ha) [%]	Percent inhibition GALAP ([3]; 100 g/ha) [%]	Percent inhibition GALAP ([3]; 300 g/ha) [%]	Percent inhibition GALAP ([3]; 900 g/ha) [%]	also measured
CCN(CC)C(=O)n1cnc(S(=O)(=O)C(F)(F)F)n1 [Example 2]	0	0	20	75	30	30	300	30	70	95	100	80	100	100	100	300	60	100	100	100	Pre-emergence activity (GR80) LOLMG (LOLMG (annual ryegrass)): 300 g/ha
CCN(CC)C(=O)n1cnc(S(=O)(=O)C(F)(F)Cl)n1 [Example 3]	0	0	30	60	30	100	100	60	95	100	100	100	100	100	100	300	100	100	100	100	–
